Assay results taken from patent publication US5874481A, “Fluorochemical solutions for the delivery of lipophilic pharmaceutical agents” (priority 1995, dated 1999).
Converted amounts (≈) assume the structure as drawn. Like-named read-outs stand apart in the source and are kept apart here.

Legend:
[1] = cited from earlier work
[2] = Solubility in perfluorooctyl ethane (Example 6); type: physicochemical; conditions: organic solvent or mixture; saturated in n-C8F17C2H5; read-out: g/L in C8F17C2H5
Protocol: A pharmaceutical fluorochemical solution was prepared as follows:
An aliquot of n-C8 F17 C2 H5 (2 mL; F-Tech, Inc.) was saturated with "Drug" (Sigma Chemical Co.).

[3] = Effect of fluorochemical lipophilicity on pharmaceutical solubility (Example 7); type: physicochemical
Protocol: Pharmaceutical fluorochemical solutions were prepared as follows: […]

[4] = in vivo, cited from earlier work
[5] = Solubility of prednisone in fluorocarbons (Example 5); type: physicochemical; conditions: organic solvent or mixture, read-out: mg/L of prednisone in fluorochemical matrix
Protocol: A prednisone containing perfluorochemical solution was prepared as follows:
The column was a 25 cm amino column (Rainin), and the detection was carried out by a UV detector (Beckman System Gold) at the end of the column.

[6] = octanol/pH 7.4 isotonic phosphate buffer at 37° C.

c1ccc2cc3cc4ccccc4cc3cc2c1 [2,3 Benzanthracene]
log Po/w ([1]; Example 6, source not stated): 5.807
solubility [2]: 0.0003 g/L (≈ 0.00131 mM)

c1ccc2cc3ccccc3cc2c1 [Antracene]
log Po/w ([1]; Example 6, source not stated): 4.473
solubility [2]: 0.09 g/L (≈ 0.505 mM)

CCCCc1ccccc1 [Butylbenzene]
log Po/w ([1]; Example 6, source not stated): 4
solubility [2]: 116 g/L (≈ 862 mM)

CCCCCCc1ccccc1 [Hexylbenzene]
log Po/w ([1]; octanol/water): 5.52
solubility [2]: 67.1 g/L (≈ 413 mM)

c1ccc2ccccc2c1 [Naphthalene]
solubility ([3]; organic solvent or mixture, in C6F13C2H5, read-out: Naphthalene): 12000 µg/mL (≈ 93.6 mM)
solubility ([3]; organic solvent or mixture, in C6F13C6H13, read-out: Naphthalene): 30000 µg/mL (≈ 234 mM)
solubility ([3]; organic solvent or mixture, in C6F13C8H17, read-out: Naphthalene): 40000 µg/mL (≈ 312 mM)
solubility ([3]; organic solvent or mixture, in C8F17C2H5, read-out: Naphthalene): 8000 µg/mL (≈ 62.4 mM)
solubility ([3]; organic solvent or mixture, in C8F17C4H9, read-out: Naphthalene): 14000 µg/mL (≈ 109 mM)
solubility ([3]; organic solvent or mixture, in C8F17C6H13, read-out: Naphthalene): 23000 µg/mL (≈ 179 mM)
log Po/w ([1]; Example 6, source not stated): 3.387
solubility [2]: 8.1 g/L (≈ 63.2 mM)

CC/C(=C(/CC)c1ccc(O)cc1)c1ccc(O)cc1 [^3 H -diethylstilbesterol, diethylstilbesterol]
Octanol/water partition coefficient Po/w ([1]; octanol/water): 1.26 × 10^5

c1ccc2cc3ccccc3cc2c1 [^14 C-anthracene, anthracene]
Octanol/water partition coefficient Po/w ([1]; octanol/water): 3.16 × 10^4

CCCCCCCCCCCC(=O)N1CCCCCC1 [^14 C-hexamethylene lauramide, hexamethylene lauramide]
Log Po/w ([1]; octanol/water): 7.3
Octanol/water partition coefficient Po/w ([1]; octanol/water): 2.00 × 10^7

CC(=O)[C@H]1CC[C@H]2[C@@H]3CCC4=CC(=O)CC[C@]4(C)[C@H]3CC[C@]12C [^14 C-progesterone, progesterone]
Octanol/water partition coefficient Po/w ([1]; octanol/water): 7.9 × 10^3

CCCCN1CCCCC1C(=O)Nc1c(C)cccc1C (stereo not shown) [bupivacaine]
Octanol/water partition coefficient Po/w ([1]; octanol/water): 28.2

CN(C)CCCN1c2ccccc2CCc2ccc(Cl)cc21 [clomipramine]
Octanol/water partition coefficient Po/w ([1]; octanol/water, pH 7.4): 3.80 × 10^3

CCc1cc2c(s1)N(C)C(=O)CN=C2c1ccccc1Cl [clotiazepam]
Log Po/w [1, 6]: 3.49
Octanol/water partition coefficient Po/w [1, 6]: 3.06 × 10^3

CCCCCC(=O)OCCOCn1cnc2c(=O)[nH]c(N)nc21 [hexanoyl acyclovir]
Log Po/w [1, 6]: 0.93

CCCCCCCCCCCCCCCc1cccc(O)c1 [m-Pentadecylphenol]
solubility ([3]; c6f13c2h5, organic solvent or mixture): 700 µg/mL (≈ 2.3 mM)
solubility ([3]; c6f13c6h13, organic solvent or mixture): 4100 µg/mL (≈ 13.5 mM)
solubility ([3]; c6f13c8h17, organic solvent or mixture): 5600 µg/mL (≈ 18.4 mM)
solubility ([3]; c8f17c2h5, organic solvent or mixture): 400 µg/mL (≈ 1.31 mM)
solubility ([3]; c8f17c4h9, organic solvent or mixture): 600 µg/mL (≈ 1.97 mM)
solubility ([3]; c8f17c6h13, organic solvent or mixture): 1700 µg/mL (≈ 5.58 mM)
log Po/w ([1]; octanol/water): 9.53
solubility [2]: 0.4 g/L (≈ 1.31 mM)

CCc1ccccc1O [o-Ethylphenol]
solubility [2]: 9.4 g/L (≈ 76.9 mM)

Cc1ccc(O)cc1 [p-Cresol]
log Po/w ([1]; Example 6, source not stated): 1.9
solubility [2]: 3.9 g/L (≈ 36.1 mM)

CC(=O)O[C@H]1C(=O)[C@@]2(C)[C@H]([C@H](OC(=O)c3ccccc3)[C@]3(O)C[C@H](OC(=O)[C@H](O)[C@@H](NC(=O)c4ccccc4)c4ccccc4)C(C)=C1C3(C)C)[C@]1(OC(C)=O)CO[C@@H]1C[C@@H]2O [paclitaxel]
systemic toxicities ([4]; iv): high systemic toxicities
systemic toxicities associated with paclitaxel [4]: cardiac toxicity and neurotoxicity

CC(C)=CCN1CCC2(C)c3cc(O)ccc3CC1C2C (stereo not shown) [pentazocin]
Log Po/w [1, 6]: 2.18
Octanol/water partition coefficient Po/w [1, 6]: 150

C[C@]12C=CC(=O)C=C1CC[C@@H]1[C@@H]2C(=O)C[C@@]2(C)[C@H]1CC[C@]2(O)C(=O)CO [prednisone]
solubility ([5]; 1,4-dibromooctafluorobutane with 10% ethanol, in 1,4-Dibromooctafluorobutane with 10% Ethyl Alcohol): 1700 mg/L (≈ 4.74 mM)
solubility ([5]; 1,4-dibromooctafluorobutane with 50% ethanol, in 1,4-Dibromooctafluorobutane with 50% Ethyl Alcohol): 3800 mg/L (≈ 10.6 mM)
solubility ([5]; n-c6f13c2h5 with 3% ethanol, in n-C6F13C2H5 with 3% Ethyl Alcohol): 27 mg/L (≈ 0.0753 mM)
solubility ([5]; n-c6f13c6h13 with 3% ethanol, in n-C6F13C6H13 with 3% Ethyl Alcohol): 80 mg/L (≈ 0.223 mM)
solubility ([5]; n-c8f17br with 3% ethanol, in n-C8F17Br with 3% Ethyl Alcohol): < 1 mg/L
solubility ([5]; in 1,4-Dibromooctafluorobutane): < 1 mg/L

CC(CN1c2ccccc2Sc2ccccc21)N(C)C (stereo not shown) [promethazine]
Log Po/w [1, 6]: 3.10
Octanol/water partition coefficient Po/w [1, 6]: 1.27 × 10^3

OC(CCN1CCCCC1)(c1ccccc1)C1CCCCC1 (stereo not shown) [trihexyphenidyl]
Log Po/w ([1]; octanol/water, pH 7.4): 3.17
Octanol/water partition coefficient Po/w ([1]; octanol/water, pH 7.4): 1.47 × 10^3

CCCCC(=O)OCCOCn1cnc2c(=O)[nH]c(N)nc21 [valeryl acyclovir]
Log Po/w [1, 6]: 0.30
